In ChEMBL document CHEMBL1139080, “3-Mercaptopropionic acids as efficacious inhibitors of activated thrombin activatable fibrinolysis inhibitor (TAFIa)” (Bioorg Med Chem Lett, 2007):

How the values were obtained:
Carboxypeptidase B2 = target: T1, Carboxypeptidase B2 (Homo sapiens, UniProt Q96IY4); test: Inhibition of human activated thrombin activatable fibrinolysis inhibitor
T1 sequence (Q96IY4 whole entry): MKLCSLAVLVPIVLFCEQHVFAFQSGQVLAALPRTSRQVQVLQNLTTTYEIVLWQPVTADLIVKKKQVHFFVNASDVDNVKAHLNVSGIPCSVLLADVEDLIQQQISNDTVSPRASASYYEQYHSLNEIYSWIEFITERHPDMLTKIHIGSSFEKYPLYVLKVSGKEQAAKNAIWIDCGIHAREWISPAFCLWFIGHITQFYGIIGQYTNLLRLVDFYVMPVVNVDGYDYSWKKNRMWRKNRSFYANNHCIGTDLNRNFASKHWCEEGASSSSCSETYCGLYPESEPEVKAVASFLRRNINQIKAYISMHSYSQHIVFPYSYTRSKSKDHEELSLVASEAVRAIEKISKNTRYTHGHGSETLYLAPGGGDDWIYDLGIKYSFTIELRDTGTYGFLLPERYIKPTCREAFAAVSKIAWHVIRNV

Carboxypeptidase B = target: T2, Carboxypeptidase B (Sus scrofa, UniProt P09955); test: Inhibition of porcine pancreatic carboxypeptidase B
T2 sequence (P09955 whole entry): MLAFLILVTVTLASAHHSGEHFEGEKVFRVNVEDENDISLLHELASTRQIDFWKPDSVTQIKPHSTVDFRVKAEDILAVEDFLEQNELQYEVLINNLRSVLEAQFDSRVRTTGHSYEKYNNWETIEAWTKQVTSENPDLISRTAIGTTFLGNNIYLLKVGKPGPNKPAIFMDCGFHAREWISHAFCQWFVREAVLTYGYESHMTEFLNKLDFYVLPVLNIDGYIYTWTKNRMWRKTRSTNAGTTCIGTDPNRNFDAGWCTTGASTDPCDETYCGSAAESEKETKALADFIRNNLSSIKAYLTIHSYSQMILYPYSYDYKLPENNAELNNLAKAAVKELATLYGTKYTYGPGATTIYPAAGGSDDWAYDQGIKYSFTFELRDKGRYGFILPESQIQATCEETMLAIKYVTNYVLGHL

[1] = target: T3, Carboxypeptidase N catalytic chain (Homo sapiens, UniProt P15169); test: Inhibition of human carboxypeptidase N
T3 sequence (P15169 whole entry): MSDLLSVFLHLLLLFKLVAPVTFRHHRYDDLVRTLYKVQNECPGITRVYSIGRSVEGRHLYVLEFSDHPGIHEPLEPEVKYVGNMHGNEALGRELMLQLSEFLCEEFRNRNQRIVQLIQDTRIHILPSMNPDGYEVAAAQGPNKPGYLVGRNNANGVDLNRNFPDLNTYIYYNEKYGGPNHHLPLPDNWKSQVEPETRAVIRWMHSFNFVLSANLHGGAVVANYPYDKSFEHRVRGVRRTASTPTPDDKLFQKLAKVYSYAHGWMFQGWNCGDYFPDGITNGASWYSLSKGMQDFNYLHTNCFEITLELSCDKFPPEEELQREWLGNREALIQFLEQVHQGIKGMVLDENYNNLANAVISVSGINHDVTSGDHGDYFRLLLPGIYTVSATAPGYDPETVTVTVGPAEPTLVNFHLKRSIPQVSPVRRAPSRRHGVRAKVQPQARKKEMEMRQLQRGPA

Plasma = test: Inhibition of activated thrombin activatable fibrinolysis inhibitor in human plasma assessed as acceleration of clot lysis time; assay type: functional, cell-free

`NC(N)=NCCCC(CS)C(=O)O` (stereo not given) gave an IC50 (Carboxypeptidase B2) of 0.008 µM, an IC50 (Carboxypeptidase B) of 0.01 µM and an IC50 [1] of 0.002 µM.

`N=C(N)N1CCC(C(CS)C(=O)O)CC1` (stereo not given) showed an IC50 (Carboxypeptidase B2) of 1.07 µM, an IC50 (Carboxypeptidase B) of 0.045 µM and an IC50 [1] of 3.1 µM.

`CC(=N)N1CCC(C(CS)C(=O)O)CC1` (stereo not given) was tested, and the IC50 (Carboxypeptidase B2) was 5.3 µM, the IC50 (Carboxypeptidase B) was 1.04 µM and the IC50 [1] was 29 µM.

`NCC(=O)N1CCC(C(CS)C(=O)O)CC1` (stereo not given) was tested, and the IC50 (Carboxypeptidase B2) was 7.35 µM, the IC50 (Carboxypeptidase B) was greater than 30 µM and the IC50 [1] was 4.95 µM.

With `N=C(N)Nc1ccc(Cl)c(C(CS)C(=O)O)c1` (stereo not given) the IC50 (Carboxypeptidase B2) was 0.011 µM, the IC50 (Carboxypeptidase B) was 4.65 µM and the IC50 [1] was 4.65 µM.

`Nc1cccc(C(CS)C(=O)O)c1` (stereo not given) gave an IC50 (Carboxypeptidase B2) of 0.785 µM, an IC50 (Carboxypeptidase B) greater than 30 µM and an IC50 [1] of 0.357 µM.

With `O=C(O)C(CS)C1CCNCC1` (stereo not given) the IC50 (Carboxypeptidase B2) was 0.037 µM, the IC50 (Carboxypeptidase B) was 0.195 µM and the IC50 [1] was 0.06 µM.

Work on `O=C(O)C(CS)CC1CCNCC1` (stereo not given) yielded an IC50 (Carboxypeptidase B2) of 0.139 µM, an IC50 (Carboxypeptidase B) of 0.029 µM and an IC50 [1] of 0.061 µM.

`N=C(N)c1ccc(C(CS)C(=O)O)cc1` (stereo not given) gave an IC50 (Carboxypeptidase B2) of 0.905 µM, an IC50 (Carboxypeptidase B) of 0.845 µM and an IC50 [1] of 1 µM.

`N=C(N)Nc1cccc(C(CS)C(=O)O)c1` (racemic) [listing 1 of 2 here] showed an IC50 (Carboxypeptidase B2) of 0.004 µM, an IC50 (Carboxypeptidase B) of 0.137 µM and an IC50 [1] of 0.003 µM.

`N=C(N)Nc1cccc(C(CS)C(=O)O)c1` (racemic) [listing 2 of 2 here] was tested, and the Activity (Plasma) was “Dose-dependent effect”.

`N=C(N)Nc1cccc(C(CS)C(=O)O)c1` (single isomer, unassigned; (+)) was tested, and the IC50 (Carboxypeptidase B2) was 0.005 µM, the IC50 (Carboxypeptidase B) was 0.036 µM and the IC50 [1] was 0.008 µM.

In the case of `N=C(N)N1CCCC(C(CS)C(=O)O)C1` (stereo in doubt; 1b), the IC50 (Carboxypeptidase B2) is reported as 0.045 µM, the IC50 (Carboxypeptidase B) is reported as 0.038 µM and the IC50 [1] is reported as 0.038 µM.

Molecule `O=C(O)C(CS)C1CCCNC1` (stereo in doubt; 1c) has an IC50 (Carboxypeptidase B2) of 0.068 µM, an IC50 (Carboxypeptidase B) greater than 30 µM and an IC50 [1] greater than 30 µM.

`N=C(N)N1CCCC(C(CS)C(=O)O)C1` (stereo in doubt; 1d) was tested, and the IC50 (Carboxypeptidase B2) was 0.165 µM, the IC50 (Carboxypeptidase B) was 0.003 µM and the IC50 [1] was 0.058 µM.

`O=C(O)C(CS)C1CCCNC1` (stereo in doubt; 1e) was tested, and the IC50 (Carboxypeptidase B2) was 0.445 µM, the IC50 (Carboxypeptidase B) was 19 µM and the IC50 [1] was 1.75 µM.

Work on `O=C(O)C(CS)CC1CCCNC1` (stereo in doubt; 3a) yielded an IC50 (Carboxypeptidase B2) of 0.092 µM, an IC50 (Carboxypeptidase B) of 4.15 µM and an IC50 [1] of 0.42 µM.

With `O=C(O)C(CS)CC1CCCNC1` (stereo in doubt; 3b) the IC50 (Carboxypeptidase B2) was 0.129 µM, the IC50 (Carboxypeptidase B) was 1.95 µM and the IC50 [1] was greater than 30 µM.

`N=C(N)Nc1cccc(C(CS)C(=O)O)c1` (stereo in doubt; (-)2a) gave an IC50 (Carboxypeptidase B2) of 0.003 µM, an IC50 (Carboxypeptidase B) of 1.72 µM and an IC50 [1] of 1.72 µM.
